This is an account of results in ChEMBL document CHEMBL5331138, “Potent, Selective, and Membrane Permeable 2-Amino-4-Substituted Pyridine-Based Neuronal Nitric Oxide Synthase Inhibitors” (J Med Chem, 2023).

Molecules are shown by their SMILES.

The target in series [1] is T1, Nitric oxide synthase 3 (Homo sapiens, UniProt P29474).
T1 sequence (P29474 whole entry): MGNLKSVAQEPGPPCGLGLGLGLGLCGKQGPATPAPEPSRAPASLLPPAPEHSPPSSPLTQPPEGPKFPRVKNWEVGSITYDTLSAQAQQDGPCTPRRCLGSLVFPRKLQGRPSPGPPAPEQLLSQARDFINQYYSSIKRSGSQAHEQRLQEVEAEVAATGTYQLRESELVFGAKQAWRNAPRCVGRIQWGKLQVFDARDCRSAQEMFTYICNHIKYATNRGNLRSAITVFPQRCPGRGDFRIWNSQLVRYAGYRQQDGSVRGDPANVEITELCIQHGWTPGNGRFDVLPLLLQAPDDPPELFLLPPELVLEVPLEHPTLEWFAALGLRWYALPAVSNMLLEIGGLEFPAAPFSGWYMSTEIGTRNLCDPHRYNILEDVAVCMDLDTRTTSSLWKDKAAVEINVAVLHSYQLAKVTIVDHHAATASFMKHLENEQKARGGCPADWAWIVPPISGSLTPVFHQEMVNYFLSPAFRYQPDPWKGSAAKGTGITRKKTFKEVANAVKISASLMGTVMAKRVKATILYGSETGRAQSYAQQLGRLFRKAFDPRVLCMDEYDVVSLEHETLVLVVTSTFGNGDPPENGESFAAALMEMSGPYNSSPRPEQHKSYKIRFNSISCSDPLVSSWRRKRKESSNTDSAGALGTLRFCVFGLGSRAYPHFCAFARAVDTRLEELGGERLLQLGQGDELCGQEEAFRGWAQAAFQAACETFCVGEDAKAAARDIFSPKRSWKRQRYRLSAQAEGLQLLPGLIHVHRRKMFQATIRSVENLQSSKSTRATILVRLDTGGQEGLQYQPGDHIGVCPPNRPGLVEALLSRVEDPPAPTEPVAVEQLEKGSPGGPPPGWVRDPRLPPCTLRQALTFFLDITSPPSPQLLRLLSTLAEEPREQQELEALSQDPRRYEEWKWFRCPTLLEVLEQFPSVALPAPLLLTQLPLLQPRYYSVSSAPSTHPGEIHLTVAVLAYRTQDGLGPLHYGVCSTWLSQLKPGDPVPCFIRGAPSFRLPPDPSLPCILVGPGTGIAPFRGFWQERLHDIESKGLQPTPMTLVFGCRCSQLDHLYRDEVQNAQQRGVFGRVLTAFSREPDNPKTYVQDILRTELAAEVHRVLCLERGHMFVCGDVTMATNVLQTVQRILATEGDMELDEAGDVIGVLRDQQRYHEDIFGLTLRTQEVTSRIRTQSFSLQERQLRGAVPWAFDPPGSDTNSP
Description: Inhibition of human eNOS expressed in Escherichia coli using human oxyhemoglobin by hemoglobin (Hb) NO capture assay.

Series [2] addresses Nitric oxide synthase 1 (Homo sapiens, UniProt P29475).
Description: Inhibition of human nNOS expressed in Escherichia coli using human oxyhemoglobin by hemoglobin (Hb) NO capture assay
Series [3] has as its target Nitric oxide synthase, inducible (Homo sapiens, UniProt P35228).
Description: Inhibition of human iNOS expressed in Escherichia coli using human oxyhemoglobin by hemoglobin (Hb) NO capture assay
Series [4] concerns the target Nitric oxide synthase 1 (Rattus norvegicus, UniProt P29476).
Description: Inhibition of rat nNOS expressed in Escherichia coli using human oxyhemoglobin by hemoglobin (Hb) NO capture assay
The conditions of series [5]: mouse, microsomes.
The conditions of series [6]: human, microsomes.

Chain of Nitric oxide synthase, inducible (P35228 whole entry): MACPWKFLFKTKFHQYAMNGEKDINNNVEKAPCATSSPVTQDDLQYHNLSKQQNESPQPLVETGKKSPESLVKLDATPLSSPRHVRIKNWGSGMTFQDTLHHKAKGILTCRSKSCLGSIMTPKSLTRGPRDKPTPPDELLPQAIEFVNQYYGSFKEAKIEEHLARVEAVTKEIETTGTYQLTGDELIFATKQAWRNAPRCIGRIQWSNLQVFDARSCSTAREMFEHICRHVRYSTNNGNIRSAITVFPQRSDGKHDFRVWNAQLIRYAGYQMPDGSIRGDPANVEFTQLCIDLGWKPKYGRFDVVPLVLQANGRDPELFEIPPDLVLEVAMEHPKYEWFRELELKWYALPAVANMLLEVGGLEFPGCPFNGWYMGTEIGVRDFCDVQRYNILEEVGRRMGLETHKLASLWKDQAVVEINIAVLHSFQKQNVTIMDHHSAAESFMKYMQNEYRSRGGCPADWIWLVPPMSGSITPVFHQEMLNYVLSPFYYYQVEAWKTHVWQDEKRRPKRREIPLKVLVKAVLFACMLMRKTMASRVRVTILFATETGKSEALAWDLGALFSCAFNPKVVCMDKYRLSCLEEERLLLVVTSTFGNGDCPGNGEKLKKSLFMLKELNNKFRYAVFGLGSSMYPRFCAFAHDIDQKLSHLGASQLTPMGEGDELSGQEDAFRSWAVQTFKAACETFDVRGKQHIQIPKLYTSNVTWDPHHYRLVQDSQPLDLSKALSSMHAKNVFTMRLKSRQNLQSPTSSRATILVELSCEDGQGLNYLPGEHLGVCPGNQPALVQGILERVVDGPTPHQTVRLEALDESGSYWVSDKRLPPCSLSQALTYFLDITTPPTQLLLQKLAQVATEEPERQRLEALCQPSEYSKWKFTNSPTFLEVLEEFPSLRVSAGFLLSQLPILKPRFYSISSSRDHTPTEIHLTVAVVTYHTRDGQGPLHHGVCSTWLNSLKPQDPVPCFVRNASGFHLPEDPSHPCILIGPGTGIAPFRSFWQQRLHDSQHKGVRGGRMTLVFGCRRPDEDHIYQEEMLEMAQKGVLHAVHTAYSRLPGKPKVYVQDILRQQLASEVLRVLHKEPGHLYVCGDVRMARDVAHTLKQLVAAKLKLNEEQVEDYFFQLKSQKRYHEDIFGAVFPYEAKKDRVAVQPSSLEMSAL
Chain of Nitric oxide synthase 1 (Homo sapiens, UniProt P29475) (P29475 whole entry): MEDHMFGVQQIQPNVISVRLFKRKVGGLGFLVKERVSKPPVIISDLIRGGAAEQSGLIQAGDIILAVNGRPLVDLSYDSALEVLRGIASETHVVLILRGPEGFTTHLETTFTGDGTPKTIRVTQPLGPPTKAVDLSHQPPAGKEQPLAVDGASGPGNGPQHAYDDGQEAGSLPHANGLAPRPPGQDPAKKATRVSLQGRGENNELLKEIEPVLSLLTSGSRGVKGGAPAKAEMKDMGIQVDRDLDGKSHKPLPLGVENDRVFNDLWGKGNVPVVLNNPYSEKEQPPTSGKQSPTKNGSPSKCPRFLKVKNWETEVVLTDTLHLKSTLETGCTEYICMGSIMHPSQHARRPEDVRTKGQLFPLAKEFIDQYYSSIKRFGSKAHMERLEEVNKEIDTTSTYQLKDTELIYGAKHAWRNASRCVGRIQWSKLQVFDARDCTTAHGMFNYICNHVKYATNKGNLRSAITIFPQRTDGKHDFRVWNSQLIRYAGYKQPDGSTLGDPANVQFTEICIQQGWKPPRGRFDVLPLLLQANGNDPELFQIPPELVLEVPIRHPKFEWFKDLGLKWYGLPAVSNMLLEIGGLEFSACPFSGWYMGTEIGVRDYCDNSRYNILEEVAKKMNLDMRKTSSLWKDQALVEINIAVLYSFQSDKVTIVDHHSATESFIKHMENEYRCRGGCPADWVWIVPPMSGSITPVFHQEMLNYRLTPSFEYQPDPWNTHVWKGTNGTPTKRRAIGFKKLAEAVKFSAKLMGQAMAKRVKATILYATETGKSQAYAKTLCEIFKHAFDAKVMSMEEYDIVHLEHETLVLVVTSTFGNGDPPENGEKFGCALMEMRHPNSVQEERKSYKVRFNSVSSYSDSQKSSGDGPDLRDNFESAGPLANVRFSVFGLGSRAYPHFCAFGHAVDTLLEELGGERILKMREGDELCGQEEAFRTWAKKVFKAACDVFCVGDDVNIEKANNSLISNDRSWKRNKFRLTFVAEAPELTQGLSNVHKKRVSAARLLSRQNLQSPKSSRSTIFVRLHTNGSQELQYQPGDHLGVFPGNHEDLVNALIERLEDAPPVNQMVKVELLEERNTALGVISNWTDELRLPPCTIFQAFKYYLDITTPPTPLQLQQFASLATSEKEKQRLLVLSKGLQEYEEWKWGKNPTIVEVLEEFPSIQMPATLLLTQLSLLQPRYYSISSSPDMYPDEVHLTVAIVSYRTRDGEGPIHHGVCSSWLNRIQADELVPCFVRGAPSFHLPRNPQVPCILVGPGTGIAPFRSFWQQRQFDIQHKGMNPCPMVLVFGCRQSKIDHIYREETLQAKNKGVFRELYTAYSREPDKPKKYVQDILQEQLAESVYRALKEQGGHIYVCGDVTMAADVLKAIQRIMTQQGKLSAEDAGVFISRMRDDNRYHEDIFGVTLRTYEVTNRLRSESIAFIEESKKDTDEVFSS
Chain of Nitric oxide synthase 1 (Rattus norvegicus, UniProt P29476) (P29476 whole entry): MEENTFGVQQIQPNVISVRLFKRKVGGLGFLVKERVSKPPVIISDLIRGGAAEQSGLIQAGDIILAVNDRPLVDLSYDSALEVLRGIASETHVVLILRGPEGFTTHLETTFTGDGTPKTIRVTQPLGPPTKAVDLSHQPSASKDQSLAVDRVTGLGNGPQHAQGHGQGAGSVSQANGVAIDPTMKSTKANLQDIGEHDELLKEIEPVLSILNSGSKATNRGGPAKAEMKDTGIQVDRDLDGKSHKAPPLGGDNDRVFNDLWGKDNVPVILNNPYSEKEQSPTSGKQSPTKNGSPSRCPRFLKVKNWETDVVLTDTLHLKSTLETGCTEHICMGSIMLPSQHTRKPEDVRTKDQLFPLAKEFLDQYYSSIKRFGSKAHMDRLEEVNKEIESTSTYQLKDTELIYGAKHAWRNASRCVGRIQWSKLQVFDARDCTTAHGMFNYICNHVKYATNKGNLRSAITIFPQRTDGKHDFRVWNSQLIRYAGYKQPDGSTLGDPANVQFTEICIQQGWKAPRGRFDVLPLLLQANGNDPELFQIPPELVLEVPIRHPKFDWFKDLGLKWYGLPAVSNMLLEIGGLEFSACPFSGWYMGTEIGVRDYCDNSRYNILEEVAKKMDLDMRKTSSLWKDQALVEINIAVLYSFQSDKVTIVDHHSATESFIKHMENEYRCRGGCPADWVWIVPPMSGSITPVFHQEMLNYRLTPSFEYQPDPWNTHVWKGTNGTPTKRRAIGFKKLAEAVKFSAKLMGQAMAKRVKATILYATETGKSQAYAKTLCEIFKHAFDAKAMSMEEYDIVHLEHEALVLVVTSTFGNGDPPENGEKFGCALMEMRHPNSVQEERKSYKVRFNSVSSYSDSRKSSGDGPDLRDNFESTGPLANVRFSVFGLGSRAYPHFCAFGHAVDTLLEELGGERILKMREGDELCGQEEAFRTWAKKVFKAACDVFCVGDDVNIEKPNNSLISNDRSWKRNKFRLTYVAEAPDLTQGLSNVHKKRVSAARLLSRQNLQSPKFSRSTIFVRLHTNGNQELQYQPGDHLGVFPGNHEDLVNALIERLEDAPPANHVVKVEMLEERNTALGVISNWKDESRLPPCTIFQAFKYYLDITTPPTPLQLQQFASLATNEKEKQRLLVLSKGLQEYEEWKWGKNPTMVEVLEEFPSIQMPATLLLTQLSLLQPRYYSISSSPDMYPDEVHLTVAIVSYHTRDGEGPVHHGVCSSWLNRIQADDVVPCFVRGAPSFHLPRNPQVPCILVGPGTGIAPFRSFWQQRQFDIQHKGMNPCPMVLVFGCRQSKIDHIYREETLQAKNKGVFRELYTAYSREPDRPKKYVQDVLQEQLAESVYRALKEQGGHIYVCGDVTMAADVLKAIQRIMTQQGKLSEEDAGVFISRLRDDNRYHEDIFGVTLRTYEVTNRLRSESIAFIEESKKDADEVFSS

`Cc1cc(N)nc(C#Cc2cc(CCN(C)C)cc(F)c2F)c1`: the Ki (usually a measure of affinity in units of concentration, obtained from inhibition or displacement) in series [1] was determined as 18.7 µM; in series [2], 0.328 µM; in series [3] it was 48.8 µM.
For the compound `CN(C)CCc1cc(F)c(F)c(CCc2cccc(N)n2)c1`, the inhibitory constant (Ki) in series [1] turned out to be 61.4 µM; in series [4] it was 1.11 µM; in series [2], 1.64 µM.
The compound `CN(C)CCc1cc(F)c(F)c(CCc2cc(C(F)(F)F)cc(N)n2)c1.Cl.Cl` showed an inhibition constant Ki in series [1] of 68.3 µM.
Take `Cc1cc(N)nc(C#Cc2cc(CN(C)C)cc(F)c2F)c1.Cl.Cl`: the Ki in series [1] was 7.68 µM; in series [2], 0.319 µM; in series [3], 88.7 µM.
Take `Cc1cc(N)nc(CCc2cc(CCN(C)C)cc(F)c2F)c1.Cl.Cl`: the t1/2 in series [5] was 29 min; in series [6] it was greater than 60 min.
For the compound `Cc1cc(N)nc(/C=C/c2cc(CCN(C)C)cc(F)c2F)c1`, the figures for the Ki in series [1], in series [2] and in series [3] were 14.3 µM, 0.048 µM and 11.9 µM, respectively.
Regarding `Cc1cc(N)nc(CCc2cc(CCN)cc(F)c2F)c1.Cl.Cl`, the Ki stood at 77.2 µM in series [1] and 1.72 µM in series [3].
In series [1], `CCN(CC)CCc1cc(F)c(F)c(CCc2cc(C)cc(N)n2)c1.Cl.Cl` displayed a Ki of 46.4 µM. In other words, the double-digit micromolar range.
On to `Cc1cc(N)nc(CCc2cc(CCN3CCN(C)CC3)cc(F)c2F)c1`, for which, in series [1], the inhibition constant (Ki) was 12.4 µM.
As for `Cc1cc(N)nc(CCc2cc(CC[C@H]3CCN3C)cc(F)c2F)c1.Cl.Cl`, the figures for the t1/2 in series [5] and in series [6] were 16 min and greater than 60 min, respectively.
